Values after ≈ are worked out from the molar mass of the structure shown. Where two headings read alike, the source gives them in different places.
Columns and labels:
Experiment in all cases: Serum MIC, broth micro-dilution
Type in all cases: cell-based
[1] = tested on: Acinetobacter baumannii ATCC 17978; settings: Acinetobacter baumannii, ATCC17978
How it was run: (§1)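 Half mouse serum, half cation-adjusted MH II broth (v/v) served as test medium; bacteria at final OD600 0.0005 were exposed to serial 2-fold compound dilutions for 22 h, 35° C, and the MIC was determined per CLSI M07-A8.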

[2] = tested on: Escherichia coli strain ATCC 25922; settings: Escherichia coli, ATCC25922, read-out: E. coli 25922 Serum MIC
How it was run: as §1

[3] = tested on: Klebsiella pneumoniae ATCC 700603; settings: Klebsiella pneumoniae, ATCC700603
How it was run: as §1

[4] = tested on: Pseudomonas aeruginosa PA01; settings: Pseudomonas aeruginosa, PA01, read-out: P. aeruginosa 01 Serum MIC
How it was run: as §1

[5] = 50% v/v mouse serum in Mueller Hinton II cation adjusted Broth, 35° C., 22 hours, Table 4, read-out: A. baumanii 17978 Serum MIC
[6] = 50% v/v mouse serum in Mueller Hinton II cation adjusted Broth, 35° C., 22 hours, Table 5, read-out: Acinetobacter baumanii 17978 Serum MIC
[7] = 50% v/v mouse serum in Mueller Hinton II cation adjusted Broth, 35° C., 22 hours, Table 4
[8] = 50% v/v mouse serum in Mueller Hinton II cation adjusted Broth, 35° C., 22 hours, Table 4, read-out: K pneumoniae 700603 Serum MIC
[9] = 50% v/v mouse serum, compounds of Table 1, Table 7

| SMILES | MIC [1, 5] [µM] | MIC [1, 6] [µM] | MIC [2, 7] [µM] | MIC [3, 8] [µM] | MIC [4, 7] [µM] | MIC ([1]; 50% v/v mouse serum, compounds of Table 1, Table 7, read-out: A. baumanii 17978 Serum MIC) [µM] | MIC [2, 9] [µM] | MIC ([3]; 50% v/v mouse serum, compounds of Table 1, Table 7, read-out: K. pneumoniae 700603 Serum MIC) [µM] | MIC [4, 9] [µM] |
| --- | --- | --- | --- | --- | --- | --- | --- | --- | --- |
| CCCCc1ccc(-c2nc(C)c(C(=O)N[C@@H](CNS(N)(=O)=O)C(=O)N(C)[C@@H]3C(=O)N[C@@H](C)C(=O)N[C@H](C(=O)O)Cc4ccc(OC[C@H](O)CN)c(c4)-c4cc3cc(OC[C@H](O)CN)c4O)c(N)n2)cc1 [Example 36, (8S,11S,14S)-14-[[(2S)-2-[[4-amino-2-(4-butylphenyl)-6-methyl-pyrimidine-5-carbonyl]amino]-3-(sulfamoylamino)-propanoyl]-methyl-amino]-3,17-bis[(2R)-3-amino-2-hydroxy-propoxy]-18-hydroxy-11-methyl-10,13-dioxo-9,12-diazatri-cyclo[13.3.1.12,6]icosa-1(18),2(20),3,5,15(19), 16-hexaene-8-carboxylic acid] | 16 (≈ 16.1 µg/mL) | 16 (≈ 16.1 µg/mL) | 0.75 (≈ 0.756 µg/mL) | 1 (≈ 1.01 µg/mL) | 16 (≈ 16.1 µg/mL) | – | – | – | – |
| Cc1nc(-c2ccc(C(C)(C)C)cc2O)cc(CN)c1C(=O)N[C@@H](CNS(N)(=O)=O)C(=O)N(C)[C@@H]1C(=O)N[C@@H](C)C(=O)N[C@H](C(=O)O)Cc2ccc(OC[C@H](O)CN)c(c2)-c2cc1cc(OC[C@H](O)CN)c2O [Example 65, (8S,11S,14S)-3,17-bis[(2R)-3-amino-2-hydroxy-propoxy]-14-[[(2S)-2-[[4-(aminomethyl)-6-(4-tert-butyl-2-hydroxy-phenyl)-2-methyl-pyridine-3-carbonyl]-amino]-3-(sulfamoyl-amino)propanoyl]-methyl-amino]-18-hydroxy-11-methyl-10,13-dioxo-9,12-diazatricyclo-[13.3.1.12,6]icosa-1(19),2(20),3,5,15,17-hexaene-8-carboxylic acid] | 32 (≈ 33.2 µg/mL) | 32 (≈ 33.2 µg/mL) | 1 (≈ 1.04 µg/mL) | 1 (≈ 1.04 µg/mL) | 16 (≈ 16.6 µg/mL) | – | – | – | – |
| CNc1nc(-c2ccc(C(C)(C)C)cc2)nc(C)c1C(=O)N[C@@H](CNS(N)(=O)=O)C(=O)N(C)[C@@H]1C(=O)N[C@@H](C)C(=O)N[C@H](C(=O)O)Cc2ccc(OC[C@H](O)CN)c(c2)-c2cc1cc(OC[C@H](O)CN)c2O [Example 56, (8S,11S,14S)-3,17-bis[(2R)-3-amino-2-hydroxy-propoxy]-14-[[(2S)-2-[[2-(4-tert-butylphenyl)-4-methyl-6-(methyl-amino)pyrimidine-5-carbonyl]amino]-3-(sulfamoylamino)-propanoyl]-methyl-amino]-18-hydroxy-11-methyl-10,13-dioxo-9,12-diazatri-cyclo[13.3.1.12,6]icosa-1(18),2(20),3,5,15(19), 16-hexaene-8-carboxylic acid] | 6 (≈ 6.13 µg/mL) | 6 (≈ 6.13 µg/mL) | 0.25 (≈ 0.256 µg/mL) | 0.5 (≈ 0.511 µg/mL) | 3 (≈ 3.07 µg/mL) | – | – | – | – |
| CCC1(Oc2ccc(-c3nc(C)c(C(=O)N[C@@H](CCN)C(=O)N(C)[C@@H]4C(=O)N[C@@H](C)C(=O)N[C@H](C(=O)O)Cc5ccc(OCCN)c(c5)-c5cc4ccc5OCCN)c(C)n3)cc2)CC1 (racemic) [Example 639] | – | – | – | – | – | 64 (≈ 57.2 µg/mL) | 0.5 (≈ 0.447 µg/mL) | 1 (≈ 0.894 µg/mL) | 64 (≈ 57.2 µg/mL) |
| Cc1nc(-c2ccc(C3(C)CC3)cc2)nc(N)c1C(=O)N[C@@H](CNS(N)(=O)=O)C(=O)N(C)[C@@H]1C(=O)N[C@@H](C)C(=O)N[C@H](C(=O)O)Cc2ccc(OC[C@H](O)CN)c(c2)-c2cc1cc(OC[C@H](O)CN)c2O [Example 6, (8S,11S,14S)-18-hydroxy-11-methyl-14-[methyl-[(2S)-2-[[4-amino-6-methyl-2-[4-(1-methylcyclo-propyl)phenyl]-pyrimidine-5-carbonyl]amino]-3-(sulfamoylamino)-propanoyl]amino]-10,13-dioxo-3,17-bis[(2R)-3-amino-2-hydroxy-propoxy]-9,12-diazatricyclo-[13.3.1.12,6]icosa-1(18),2(20),3,5,15(19), 16-hexaene-8-carboxylic acid] | 16 (≈ 16.1 µg/mL) | 16 (≈ 16.1 µg/mL) | 0.75 (≈ 0.755 µg/mL) | 0.75 (≈ 0.755 µg/mL) | 16 (≈ 16.1 µg/mL) | – | – | – | – |
| C[C@@H]1NC(=O)[C@@H](N(C)C(=O)[C@H](CNS(N)(=O)=O)NC(=O)c2c(N)cc(-c3ccc(C(C)(C)C)cc3O)nc2Cl)c2cc(OC[C@H](O)CN)c(O)c(c2)-c2cc(ccc2OC[C@H](O)CN)C[C@@H](C(=O)O)NC1=O [Example 61, (8S,11S,14S)-18-hydroxy-11-methyl-14-[methyl-[(2S)-2-[[4-amino-6-(4-tert-butyl-2-hydroxy-phenyl)-2-chloro-pyridine-3-carbonyl]-amino]-3-(sulfamoyl-amino)propanoyl]-amino]-10,13-dioxo-3,17-bis[(2R)-3-amino-2-hydroxy-propoxy]-9,12-diazatricyclo-[13.3.1.12,6]icosa-1(18),2(20),3,5,15(19), 16-hexaene-8-carboxylic acid] | 16 (≈ 16.7 µg/mL) | 16 (≈ 16.7 µg/mL) | 0.38 (≈ 0.397 µg/mL) | 0.5 (≈ 0.522 µg/mL) | 3 (≈ 3.13 µg/mL) | – | – | – | – |
| C[C@@H]1NC(=O)[C@@H](N(C)C(=O)[C@H](CCN)NC(=O)c2cnn(-c3ccc(OCCC(C)(C)C)cc3)c(=O)c2)c2cc(OC[C@H](O)CN)c(O)c(c2)-c2cc(ccc2OC[C@H](O)CN)C[C@@H](C(=O)O)NC1=O [Example 22, (8S,11S,14S)-18-hydroxy-11-methyl-14-[methyl-[(2S)-4-amino-2-[[1-[4-(3,3-dimethylbutoxy)-phenyl]-6-oxo-pyridazine-4-carbonyl]amino]-butanoyl]amino]-10,13-dioxo-3,17-bis[(2R)-3-amino-2-hydroxy-propoxy]-9,12-diazatricyclo-[13.3.1.12,6]icosa-1(18),2(20),3,5,15(19), 16-hexaene-8-carboxylic acid] | 32 (≈ 31.2 µg/mL) | 32 (≈ 31.2 µg/mL) | 1 (≈ 0.974 µg/mL) | 0.5 (≈ 0.487 µg/mL) | 32 (≈ 31.2 µg/mL) | – | – | – | – |

The remaining lines, values ahead:

| MIC [1, 5] [µM] | MIC [1, 6] [µM] | MIC [2, 7] [µM] | MIC [3, 8] [µM] | MIC [4, 7] [µM] | MIC ([1]; 50% v/v mouse serum, compounds of Table 1, Table 7, read-out: A. baumanii 17978 Serum MIC) [µM] | MIC [2, 9] [µM] | MIC ([3]; 50% v/v mouse serum, compounds of Table 1, Table 7, read-out: K. pneumoniae 700603 Serum MIC) [µM] | MIC [4, 9] [µM] | SMILES |
| --- | --- | --- | --- | --- | --- | --- | --- | --- | --- |
| 8 (≈ 7.83 µg/mL) | 8 (≈ 7.83 µg/mL) | 0.25 (≈ 0.245 µg/mL) | 0.5 (≈ 0.49 µg/mL) | 8 (≈ 7.83 µg/mL) | – | – | – | – | C[C@@H]1NC(=O)[C@@H](N(C)C(=O)[C@H](CNS(N)(=O)=O)NC(=O)c2cnc(-c3ccc(C(C)(C)C)cc3)nc2)c2cc(OC[C@H](O)CN)c(O)c(c2)-c2cc(ccc2OC[C@H](O)CN)C[C@@H](C(=O)O)NC1=O [Example 71, (8S,11S,14S)-3,17-bis[(2R)-3-amino-2-hydroxy-propoxy]-14-[[(2S)-2-[[2-(4-tert-butylphenyl)-pyrimidine-5-carbonyl]amino]-3-(sulfamoylamino)-propanoyl]-methyl-amino]-18-hydroxy-11-methyl-10,13-dioxo-9,12-diazatri-cyclo[13.3.1.12,6]icosa-1(18),2(20),3,5,15(19), 16-hexaene-8-carboxylic acid] |
| 16 (≈ 15.3 µg/mL) | 16 (≈ 15.3 µg/mL) | 0.25 (≈ 0.239 µg/mL) | 0.25 (≈ 0.239 µg/mL) | 16 (≈ 15.3 µg/mL) | – | – | – | – | Cc1nc(-c2ccc3c(c2)CCC3(C)C)nc(N)c1C(=O)N[C@@H](CCN)C(=O)N(C)[C@@H]1C(=O)N[C@@H](C)C(=O)N[C@H](C(=O)O)Cc2ccc(OC[C@H](O)CN)c(c2)-c2cc1cc(OC[C@H](O)CN)c2O [Example 47, (8S,11S,14S)-18-hydroxy-11-methyl-14-[methyl-[(2S)-4-amino-2-[[4-amino-2-(1,1-dimethylindan-5-yl)-6-methyl-pyrimidine-5-carbonyl]amino]-butanoyl]amino]-10,13-dioxo-3,17-bis[(2R)-3-amino-2-hydroxy-propoxy]-9,12-diazatricyclo-[13.3.1.12,6]icosa-1(18),2(20),3,5,15(19), 16-hexaene-8-carboxylic acid] |
| 24 (≈ 23.3 µg/mL) | 24 (≈ 23.3 µg/mL) | 1 (≈ 0.972 µg/mL) | 0.75 (≈ 0.729 µg/mL) | 64 (≈ 62.2 µg/mL) | – | – | – | – | C[C@@H]1NC(=O)[C@@H](N(C)C(=O)[C@H](CCN)NC(=O)c2cnn(-c3ccc(OC4CCCCC4)cc3)c(=O)c2)c2cc(OC[C@H](O)CN)c(O)c(c2)-c2cc(ccc2OC[C@H](O)CN)C[C@@H](C(=O)O)NC1=O [Example 26, (8S,11S,14S)-18-hydroxy-11-methyl-14-[methyl-[(2S)-4-amino-2-[[1-[4-(cyclohexoxy)phenyl]-6-oxo-pyridazine-4-carbonyl]amino]-butanoyl]amino]-10,13-dioxo-3,17-bis[(2R)-3-amino-2-hydroxy-propoxy]-9,12-diazatricyclo-[13.3.1.12,6]icosa-1(18),2(20),3,5,15(19), 16-hexaene-8-carboxylic acid] |
| 32 (≈ 30.1 µg/mL) | 32 (≈ 30.1 µg/mL) | 0.5 (≈ 0.47 µg/mL) | 0.5 (≈ 0.47 µg/mL) | 64 (≈ 60.2 µg/mL) | – | – | – | – | COc1c(OC[C@H](O)CN)cc2cc1-c1cc(ccc1OC[C@H](O)CN)C[C@@H](C(=O)O)NC(=O)[C@H](C)NC(=O)[C@H]2N(C)C(=O)[C@H](CCN)NC(=O)c1cnc(-c2ccc(C3(C)CC3)cc2)nc1C [Example 74, (8S,11S,14S)-3,17-bis[(2R)-3-amino-2-hydroxy-propoxy]-14-[[(2S)-4-amino-2-[[4-methyl-2-[4-(1-methylcyclopropyl)-phenyl]pyrimidine-5-carbonyl]amino]-butanoyl]-methyl-amino]-18-methoxy-11-methyl-10,13-dioxo-9,12-diazatri-cyclo[13.3.1.12,6]icosa-1(18),2(20),3,5,15(19), 16-hexaene-8-carboxylic acid] |

Source: patent publication US11208387B2, “Macrocyclic broad spectrum antibiotics” (Genentech, Inc., priority 2019, dated 2021)
